{"source": "patent USRE41315E1", "about": "“Modulators of dopamine neurotransmission” (NSAB, Filial af NeuroSearch Sweden AB, priority 1999, dated 2010)", "key": {"[1]": {"test_system": "d-amphetamine induced hyperactivity", "assay": "In vivo test: behavior, d-amphetamine induced hyperactivity", "conditions": "rat, d-amphetamine pretreated, n=4"}, "[2]": {"test_system": "locomotor activity of habituated rats", "assay": "In vivo test: behavior, locomotor activity of habituated rats"}, "[3]": {"test_system": "3,4-dihydroxyphenyl-acetic acid (DOPAC) in the striatum", "assay": "In vivo test: neurochemistry, 3,4-dihydroxyphenyl-acetic acid in the striatum", "conditions": "rat, n=4", "description": "After the behavioral activity sessions the rats were decapitated and their brains rapidly taken out and put on an ice-cold petri-dish. The limbic forebrain, the striatum, the frontal cortex and the remaining hemispheral parts of each rat were dissected and frozen. Each brain part was subsequently analyzed with respect to its content of monoamines and their metabolites. The monoaminergic indices analyzed were dopamine (DA), 3,4-dihydroxyphenyl-acetic acid (DOPAC), homovanillic acid (HVA), 3-methoxytyramine (3-MT), serotonin (5-HT), 5-hydroxyindole acetic acid (5-HIAA), and noradrenaline (NA). All monoaminergic indices in the dissected tissue were analyzed by means of HPLC with electrochemical detection as described by Svensson K, et al., 1986, Naunyn-Schmiedeberg's Arch Pharmacol 334: 234-245 and references cited therein."}, "[4]": {"test_system": "spontaneous behavior (locomotor activity)", "assay": "In vivo test: behavior, spontaneous locomotor activity in non-habituated/nonpretreated rats", "conditions": "rat; for locomotor activity in nonpretreated rats: 100 μmol/kg s.c., 30-60 min"}, "[5]": {"assay": "In vivo test: pharmacokinetics in the rat", "procedure": "To determine oral availability (F); and plasma half life (t1/2) of test compounds of this invention experiments performed in the rat were undertaken. On day one rats were implanted with one catheter in the jugular vein and one catheter in the carotid artery under ketamine anesthesia. On day three test compound is injected the either orally or in the jugular vein catheter. Blood samples are collected during 8 hours from the arterial catheter. The blood samples were heparinized and centrifuged. Plasma is collected from the centrifuged samples and frozen. The levels of test compound were subsequently determined in each sample by means of gas chromatography mass spectrometry (Hewlett-Packard 5972MSD). […]"}}, "note": "Structures can show the parent of a compound that is named as a salt.", "data": [{"smiles": "CCCN1CCC(c2ccc(Cl)c(C(F)(F)F)c2)CC1", "note": "(as salt: HCl) [Example 9, 4-(4-Chloro-3-trifluoromethyl-phenyl)-1-propyl-piperidine]", "values": [{"measurement": "melting point", "result": "218 to 220", "unit": "°C"}]}, {"smiles": "CCCN1[C@H](C)CN(c2ccc(Cl)c(Cl)c2)C[C@@H]1C", "note": "[Example 35, cis-4-(3,4-dichloro-phenyl)-2,6-dimethyl-1-propyl-piperazine]", "values": [{"measurement": "d-amphetamine induced hyperactivity", "setting": "[1]; 100 μmol/kg s.c.", "result": "6514±3374", "unit": "cm/60 min"}]}, {"smiles": "CCCN1CCN(c2ccc(Cl)c(C(F)(F)F)c2)CC1", "note": "(as salt: HCl)", "values": [{"measurement": "melting point", "result": 268, "unit": "°C"}]}, {"smiles": "CCCN1[C@H](C)CN(c2ccc(Cl)c(C(F)(F)F)c2)C[C@@H]1C", "note": "(as salt: HCl) [Example 33, cis-4-(4-Chloro-3-trifluoromethyl-phenyl)-2,6-dimethyl-1-propyl-piperazine]", "values": [{"measurement": "melting point", "result": 256, "unit": "°C"}]}, {"smiles": "CCCN1[C@H](C)CN(c2ccc(F)c(C(F)(F)F)c2)C[C@@H]1C", "note": "[Example 34, cis-4-(4-Fluoro-3-trifluoromethyl-phenyl)-2,6-dimethyl-1-propyl-piperazine]", "values": [{"measurement": "spontaneous behavior in the habituated rat", "setting": "[2]; habituated rat, 33 μmol/kg s.c., n=4", "result": "919±143", "unit": "cm/60 min"}, {"measurement": "3,4-dihydroxyphenyl-acetic acid in the striatum", "setting": "[3]; 33 μmol/kg s.c.", "result": "1278±143", "unit": "ng/g tissue"}]}, {"smiles": "CCCN1CCN(c2ccc(Cl)c([N+](=O)[O-])c2)CC1", "note": "[Example 19, 1-(4-Chloro-3-nitro-phenyl)-4-propyl-piperazine]", "values": [{"measurement": "d-amphetamine induced hyperactivity", "setting": "[1]; 100 μmol/kg s.c.", "result": "3767±2332", "unit": "cm/60 min"}, {"measurement": "locomotor activity in nonpretreated rats", "setting": "[4]; n=4", "result": "266±89", "unit": "cm/30 min"}, {"measurement": "3,4-dihydroxyphenyl-acetic acid in the striatum", "setting": "[3]; 100 μmol/kg s.c.", "result": "1693±104", "unit": "ng/g tissue"}]}, {"smiles": "CCCN1CCN(c2cc(F)cc(C(F)(F)F)c2)CC1", "note": "(as salt: HCl)", "values": [{"measurement": "melting point", "result": 242, "unit": "°C"}]}, {"smiles": "CCCN1[C@H](C)CN(c2ccc(F)c(C(F)(F)F)c2)C[C@@H]1C", "note": "(as salt: HCl) [Example 34, cis-4-(4-Fluoro-3-trifluoromethyl-phenyl)-2,6-dimethyl-1-propyl-piperazine]", "values": [{"measurement": "melting point", "result": 221, "unit": "°C"}]}, {"smiles": "CCCN1CCN(c2cccc(C(F)(F)F)c2)CC1", "note": "[1-propyl-4-(3-trifluoromethyl-phenyl)-piperazine, reference compound]", "values": [{"measurement": "oral availability (F)", "setting": "[5]", "result": "9,5%"}, {"measurement": "behavioral inhibition (locomotor activity)", "setting": "[4]; 50 μmol/kg s.c., n=4", "result": "271±137", "unit": "cm/60 min"}, {"measurement": "3,4-dihydroxyphenyl-acetic acid in the striatum", "setting": "[3]; 50 μmol/kg s.c.", "result": "3358±162", "unit": "ng/g tissue"}]}, {"smiles": "CCCN1CCC(c2ccc(F)c(C(F)(F)F)c2)CC1", "note": "(as salt: HCl) [Example 43, 4-(4-Fluoro-3-trifluoromethylphenyl)-1-propyl-piperidine]", "values": [{"measurement": "melting point", "result": "195 to 197", "unit": "°C"}]}, {"smiles": "CCCN1CCC(c2cc(F)cc(C(F)(F)F)c2)CC1", "note": "(as salt: HCl) [Example 44, 4-(3-Fluoro-5-trifluoromethylphenyl)-1-propyl-piperidine]", "values": [{"measurement": "melting point", "result": 215, "unit": "°C"}]}, {"smiles": "CCCN1[C@H](C)CN(c2ccc(Cl)c(Cl)c2)C[C@@H]1C", "note": "(as salt: HCl) [Example 35, cis-4-(3,4-dichloro-phenyl)-2,6-dimethyl-1-propyl-piperazine]", "values": [{"measurement": "melting point", "result": 225, "unit": "°C"}]}, {"smiles": "CCCN1CCN(c2ccc(Cl)c([N+](=O)[O-])c2)CC1", "note": "(as salt: HCl) [Example 19, 1-(4-Chloro-3-nitro-phenyl)-4-propyl-piperazine]", "values": [{"measurement": "melting point", "result": 249, "unit": "°C"}]}, {"smiles": "CCCN1CCN(c2cc(C(F)(F)F)ccc2Cl)CC1", "note": "(as salt: HCl)", "values": [{"measurement": "melting point", "result": 234, "unit": "°C"}]}, {"smiles": "CCCN1CCC(c2ccc(Cl)c(C(F)(F)F)c2)CC1", "note": "[Example 9, 4-(4-Chloro-3-trifluoromethyl-phenyl)-1-propyl-piperidine]", "values": [{"measurement": "oral availability (F)", "setting": "[5]", "result": 55, "unit": "%"}, {"measurement": "d-amphetamine induced hyperactivity", "setting": "[1]; 50 μmol/kg s.c.", "result": "3399±1247", "unit": "cm/30 min"}, {"measurement": "spontaneous behavior (distance traveled)", "setting": "[4]; 50 μmol/kg s.c.", "result": "944±114", "unit": "cm/30 min"}, {"measurement": "locomotor activity of habituated rats", "setting": "[2]; habituated rats, 50 μmol/kg s.c.", "result": "1300±761", "unit": "cm/60 min"}, {"measurement": "3,4-dihydroxyphenyl-acetic acid in the striatum", "setting": "[3]; 50 μmol/kg s.c.", "result": "1680±136", "unit": "ng/g tissue"}]}, {"smiles": "CCCN1CCC(c2ccc(F)c(C(F)(F)F)c2)CC1", "note": "[Example 43, 4-(4-Fluoro-3-trifluoromethylphenyl)-1-propyl-piperidine]", "values": [{"measurement": "locomotor activity in nonpretreated rats", "setting": "[4]; n=4", "result": "540±128", "unit": "cm/30 min"}, {"measurement": "3,4-dihydroxyphenyl-acetic acid in the striatum", "setting": "[3]; 100 μmol/kg s.c.", "result": "1895±100", "unit": "ng/g tissue"}]}, {"smiles": "CCCN1CCN(c2ccc(F)c(C(F)(F)F)c2)CC1", "note": "(as salt: HCl)", "values": [{"measurement": "melting point", "result": 238, "unit": "°C"}]}]}
